Measured values reported in ChEMBL document CHEMBL4765365, “Design, synthesis and antitumour evaluation of pyrrolo[1,2-f]-phenanthridine and dibenzo[f,h]pyrrolo[1,2-b]isoquinoline derivatives” (Eur J Med Chem, 2020).

Tests used:
[1] = system: NCI-H460; test: Induction of cell cycle arrest in human NCI-H460 cells assessed as S phase at 3 uM incubated for 36 hrs by PI staining based flow cytometry analysis (reference value: 7.6 +/- 3.9 %); assay type: functional
[2] = system: HCT-116; test: Induction of cell cycle arrest in human HCT-116 cells assessed as G2/M phase at 1.5 uM incubated for 24 hrs by PI staining based flow cytometry analysis (reference value: 9.3 +/- 0.8 %); assay type: functional
[3] = system: NCI-H460; test: Induction of cell cycle arrest in human NCI-H460 cells assessed as G0 phase at 3 uM measured at 0 hrs by PI staining based flow cytometry analysis (reference value: 1.3 +/- 0.9 %); assay type: functional
[4] = system: NCI-H460; test: Induction of cell cycle arrest in human NCI-H460 cells assessed as G0 phase at 0.75 uM measured at 0 hrs by PI staining based flow cytometry analysis (reference value: 1.3 +/- 0.9 %); assay type: functional
[5] = system: NCI-H460; test: Induction of cell cycle arrest in human NCI-H460 cells assessed as G0 phase at 0.75 uM incubated for 36 hrs by PI staining based flow cytometry analysis (reference value: 2.8 +/- 0.7 %); assay type: functional
[6] = Cytotoxicity against human PacaS1 cells assessed as reduction in cell viability incubated for 72 hrs by XTT assay; assay type: functional, cell-based; details: PacaS1, 72 h
[7] = system: HCT-116; test: Induction of cell cycle arrest in human HCT-116 cells assessed as G1 phase at 0.75 uM measured at 0 hrs by PI staining based flow cytometry analysis (reference value: 52 +/- 5.1 %); assay type: functional
[8] = system: NCI-H460; test: Induction of cell cycle arrest in human NCI-H460 cells assessed as G1 phase at 1.5 uM incubated for 12 hrs by PI staining based flow cytometry analysis (reference value: 66 +/- 10 %); assay type: functional
[9] = system: NCI-H460; test: Induction of cell cycle arrest in human NCI-H460 cells assessed as G0 phase at 0.75 uM incubated for 12 hrs by PI staining based flow cytometry analysis (reference value: 2.9 +/- 2.4 %); assay type: functional
[10] = system: HCT-116; test: Induction of cell cycle arrest in human HCT-116 cells assessed as G0 phase at 1.5 uM incubated for 36 hrs by PI staining based flow cytometry analysis (reference value: 2.5 +/- 0.8 %); assay type: functional
[11] = system: HCT-116; test: Induction of cell cycle arrest in human HCT-116 cells assessed as G1 phase at 0.75 uM incubated for 12 hrs by PI staining based flow cytometry analysis (reference value: 53.6 +/- 4.5 %); assay type: functional
[12] = system: NCI-H460; test: Induction of cell cycle arrest in human NCI-H460 cells assessed as G1 phase at 1.5 uM incubated for 36 hrs by PI staining based flow cytometry analysis (reference value: 57.9 +/- 3.6 %); assay type: functional
[13] = system: NCI-H460; test: Induction of cell cycle arrest in human NCI-H460 cells assessed as G1 phase at 3 uM incubated for 12 hrs by PI staining based flow cytometry analysis (reference value: 66 +/- 10 %); assay type: functional
[14] = system: NCI-H460; test: Induction of cell cycle arrest in human NCI-H460 cells assessed as S phase at 1.5 uM measured at 0 hrs by PI staining based flow cytometry analysis (reference value: 12.2 +/- 2.8 %); assay type: functional
[15] = system: HCT-116; test: Induction of cell cycle arrest in human HCT-116 cells assessed as G0 phase at 0.75 uM incubated for 24 hrs by PI staining based flow cytometry analysis (reference value: 12.5 +/- 5.4 %); assay type: functional
[16] = system: NCI-H460; test: Induction of cell cycle arrest in human NCI-H460 cells assessed as G2/M phase at 0.75 uM incubated for 36 hrs by PI staining based flow cytometry analysis (reference value: 25 +/- 1.2 %); assay type: functional
[17] = system: NCI-H460; test: Induction of cell cycle arrest in human NCI-H460 cells assessed as G2/M phase at 1.5 uM incubated for 12 hrs by PI staining based flow cytometry analysis (reference value: 22.9 +/- 6.8 %); assay type: functional
[18] = system: HCT-116; test: Induction of cell cycle arrest in human HCT-116 cells assessed as G1 phase at 1.5 uM measured at 0 hrs by PI staining based flow cytometry analysis (reference value: 52 +/- 5.1 %); assay type: functional
[19] = system: HCT-116; test: Induction of cell cycle arrest in human HCT-116 cells assessed as G2/M phase at 1.5 uM incubated for 12 hrs by PI staining based flow cytometry analysis (reference value: 21.7 +/- 1.9 %); assay type: functional
[20] = system: HCT-116; test: Induction of cell cycle arrest in human HCT-116 cells assessed as S phase at 0.75 uM incubated for 24 hrs by PI staining based flow cytometry analysis (reference value: 21.2 +/- 5.4 %); assay type: functional
[21] = system: NCI-H460; test: Antitumor activity against human NCI-H460 cells xenografted in nude mouse assessed as reduction in tumor size at 30 mg/kg, iv administered for 5 days and repeated cycle for 2 days interval and measured on day 24; assay type: functional; details: 576 h, time 24 day, read-out: TGI
[22] = system: HCT-116; test: Induction of cell cycle arrest in human HCT-116 cells assessed as G1 phase at 0.375 uM incubated for 24 hrs by PI staining based flow cytometry analysis (reference value: 55 +/- 9.8 %); assay type: functional
[23] = system: NCI-H460; test: Induction of cell cycle arrest in human NCI-H460 cells assessed as S phase at 1.5 uM incubated for 24 hrs by PI staining based flow cytometry analysis (reference value: 11.7 +/- 6.1 %); assay type: functional
[24] = system: HCT-116; test: Induction of cell cycle arrest in human HCT-116 cells assessed as G2/M phase at 0.375 uM incubated for 36 hrs by PI staining based flow cytometry analysis (reference value: 23.6 +/- 1 %); assay type: functional
[25] = system: NCI-H460; test: Induction of cell cycle arrest in human NCI-H460 cells assessed as S phase at 0.75 uM incubated for 36 hrs by PI staining based flow cytometry analysis (reference value: 7.6 +/- 3.9 %); assay type: functional

With `OCc1cn2c3ccccc3c3ccccc3c2c1CO` as the compound, how does the Activity [1] read?
Its Activity is 9.6%.

And the Activity [2]?
Its Activity is 30.3%.

And the Activity [3]?
The Activity was 1.3%.

And the Activity [4]?
The Activity was 1.8%.

What about the Activity [5] of the same compound?
Its Activity is 1.9%.

And the IC50 [6]?
The IC50 was 1.41 µM.

What about the Activity [7] of the same compound?
Its Activity is 52%.

What about the Activity [8] of the same compound?
Its Activity is 50.7%.

And the Activity [9]?
Its Activity is 3.7%.

What about the Activity [10] of the same compound?
The Activity was 18.2%.

And the Activity [11]?
Its Activity is 51.6%.

And the Activity [12]?
Its Activity is 73.1%.

What about the Activity [13] of the same compound?
Its Activity is 53.3%.

What about the Activity [14] of the same compound?
The Activity was 12%.

And the Activity [15]?
Its Activity is 2.7%.

And the Activity [16]?
Its Activity is 20.9%.

What about the Activity [17] of the same compound?
The Activity was 25.1%.

And the Activity [18]?
Its Activity is 53.6%.

What about the Activity [19] of the same compound?
Its Activity is 24%.

What about the Activity [20] of the same compound?
Its Activity is 8.9%.

And the inhibition in vivo at 30 mg/kg [21]?
Its inhibition in vivo at 30 mg/kg is 66%.

And the Activity [22]?
Its Activity is 46.7%.

What about the Activity [23] of the same compound?
The Activity was 8.6%.

What about the Activity [24] of the same compound?
The Activity was 23.4%.

And the Activity [25]?
Its Activity is 6.3%.
